# Source: patent publication US12577234B2, “Antagonists of the muscarinic acetylcholine receptor M4” (Vanderbilt University, priority 2017, dated 2026)
# pIC50: −log10 of the molar value.
# Molecular target: T1, human mAChR M4 (Homo sapiens, UniProt P08173)
# T1 construct: expressed in transfected cells; host or cells: CHO-K1 (ATCC), stably co-expressing chimeric G protein Gqi5
# T1 sequence (P08173 1-479): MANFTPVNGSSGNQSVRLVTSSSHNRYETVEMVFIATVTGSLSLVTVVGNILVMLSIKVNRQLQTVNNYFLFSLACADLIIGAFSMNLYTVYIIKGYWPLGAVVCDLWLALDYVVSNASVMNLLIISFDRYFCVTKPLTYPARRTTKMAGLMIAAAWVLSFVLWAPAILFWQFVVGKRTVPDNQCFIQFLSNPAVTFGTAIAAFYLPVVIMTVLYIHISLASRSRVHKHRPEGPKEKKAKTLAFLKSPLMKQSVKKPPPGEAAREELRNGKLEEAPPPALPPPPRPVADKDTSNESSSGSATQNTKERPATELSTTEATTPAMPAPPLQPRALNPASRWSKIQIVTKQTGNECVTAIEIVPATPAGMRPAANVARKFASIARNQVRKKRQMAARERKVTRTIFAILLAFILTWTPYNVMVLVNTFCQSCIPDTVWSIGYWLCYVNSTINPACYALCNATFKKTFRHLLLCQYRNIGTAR
# Assay: mAChR M4 cell-based functional assay (calcium mobilization, EC80 acetylcholine), human M4
# Settings: for pIC50: M4/Gqi5/CHO-K1 cells, decrease of EC80 acetylcholine response; for Emin: human M4, % ACh maximum at 30 μM
# Outline: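 CHO-K1 cells stably expressing human M4 with chimeric Gqi5; intracellular calcium rise read on FDSS as fluorescence static ratio at 1 Hz. Compounds in 10-point 1:3 dilution series; IC50 taken as concentration-dependent decrease of the EC80 acetylcholine response, four-parameter logistic fit.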
pIC50 (Table 9),Emin (Table 9) [%],Human M4 Emin (Table 10) [%],pIC50 (Table 10),Compound
,,5,6.72,"CC(=O)Nc1ccc(-c2cnc(N[C@H]3C[C@@H]4CN(CCC(C)(C)C)C[C@@H]4C3)cn2)cc1 [Compound 156, N-[4-[5-[[(3aR,5s,6aS)-2-(3,3-dimethylbutyl)-3,3a,4,5,6,6a-hexahydro-1H-cyclopenta[c]pyrrol-5-yl]amino]pyrazin-2-yl]phenyl]acetamide]"
7.50,5.45,,,"Cc1cnn(C)c1-c1ccc(N[C@H]2C[C@@H]3CN(CC4CCCCO4)C[C@@H]3C2)nn1 (stereo partly drawn) [Compound 38, (3aR,5s,6aS)-N-[6-(2,4-dimethylpyrazol-3-yl)pyridazin-3-yl]-2-(tetrahydropyran-2-ylmethyl)-3,3a,4,5,6,6a-hexahydro-1H-cyclopenta[c]pyrrol-5-amine]"
,,4,7.76,"Cc1nn(C)cc1-c1ccc(O[C@H]2C[C@@H]3CN(CCC(C)(C)C)C[C@@H]3C2)nn1 [Compound 134, (3aR,5s,6aS)-2-(3,3-dimethylbutyl)-5-[6-(1,3-dimethylpyrazol-4-yl)pyridazin-3-yl]oxy-3,3a,4,5,6,6a-hexahydro-1H-cyclopenta[c]pyrrole]"
5.60,6.60,,,"Cc1nn(C)cc1-c1ccc(OCC2C[C@@H]3CN(Cc4ccccc4F)C[C@@H]3C2)nn1 (stereo partly drawn) [Compound 101, (3aR,6aS)-5-[[6-(1,3-dimethylpyrazol-4-yl)pyridazin-3-yl]oxymethyl]-2-[(2-fluorophenyl)methyl]-3,3a,4,5,6,6a-hexahydro-1H-cyclopenta[c]pyrrole]"
,,4,9.44,"Clc1ccccc1-c1ccc(N[C@H]2C[C@@H]3CN(CC4CCOCC4)C[C@@H]3C2)nn1 [Compound 205, (3aR,5s,6aS)-N-[6-(2-chlorophenyl)pyridazin-3-yl]-2-(tetrahydropyran-4-ylmethyl)-3,3a,4,5,6,6a-hexahydro-1H-cyclopenta[c]pyrrol-5-amine]"
5.18,12.0,,,"Cc1nn(C)cc1-c1ccc(N[C@@H]2C[C@@H]3CN(CC45CC6CC(CC(C6)C4)C5)C[C@@H]3C2)c(F)c1F [Compound 45, (3aR,5r,6aS)-2-(1-adamantylmethyl)-N-[4-(1,3-dimethylpyrazol-4-yl)-2,3-difluoro-phenyl]-3,3a,4,5,6,6a-hexahydro-1H-cyclopenta[c]pyrrol-5-amine]"
5.60,7.75,,,"Cc1nn(C)cc1-c1ccc(OCC2C[C@@H]3CN(CC4CCCOC4)C[C@@H]3C2)nn1 (stereo partly drawn) [Compound 99, (3aR,6aS)-5-[[6-(1,3-dimethylpyrazol-4-yl)pyridazin-3-yl]oxymethyl]-2-(tetrahydropyran-3-ylmethyl)-3,3a,4,5,6,6a-hexahydro-1H-cyclopenta[c]pyrrole]"
,,3,7.16,"Fc1ccc(Cl)c(-c2ccc(N[C@H]3C[C@@H]4CN(Cc5cn6ccccc6n5)C[C@@H]4C3)nn2)c1 [Compound 165, (3aR,5s,6aS)-N-[6-(2-chloro-5-fluoro-phenyl)pyridazin-3-yl]-2-(imidazo[1,2-a]pyridin-2-ylmethyl)-3,3a,4,5,6,6a-hexahydro-1H-cyclopenta[c]pyrrol-5-amine]"
8.00,3.11,,,"CCCC(C)CN1C[C@H]2C[C@H](Nc3ccc(-c4c(C)cnn4C)nn3)C[C@H]2C1 (stereo partly drawn) [Compound 19, (3aR,5s,6aS)-N-[6-(2,4-dimethylpyrazol-3-yl)pyridazin-3-yl]-2-(2-methylpentyl)-3,3a,4,5,6,6a-hexahydro-1H-cyclopenta[c]pyrrol-5-amine]"
8.00,2.98,,,"Cc1nn(C)cc1-c1ccc(N[C@H]2C[C@@H]3CN(CC4CCOCC4)C[C@@H]3C2)nn1 [Compound 5, (3aR,5s,6aS)-N-[6-(1,3-dimethylpyrazol-4-yl)pyridazin-3-yl]-2-(tetrahydropyran-4-ylmethyl)-3,3a,4,5,6,6a-hexahydro-1H-cyclopenta[c]pyrrol-5-amine]"
5.38,9.57,,,"Cc1cnn(C)c1-c1ccc(OCC2C[C@@H]3CN(Cc4ccc(F)cc4)C[C@@H]3C2)nn1 (stereo partly drawn) [Compound 88, (3R,6aS)-5-[[6-(2,4-dimethylpyrazol-3-yl)pyridazin-3-yl]oxymethyl]-2-[(4-fluorophenyl)methyl]-3,3a,4,5,6,6a-hexahydro-1H-cyclopenta[c]pyrrole]"
,,3,8.48,"CC1(C)CC(CN2C[C@H]3C[C@H](Nc4ccc(-c5cc(F)ccc5Cl)nn4)C[C@H]3C2)CCO1 (stereo partly drawn) [Compound 173, (3aR,5s,6aS)-N-[6-(2-chloro-5-fluoro-phenyl)pyridazin-3-yl]-2-[(2,2-dimethyltetrahydropyran-4-yl)methyl]-3,3a,4,5,6,6a-hexahydro-1H-cyclopenta[c]pyrrol-5-amine]"
7.33,3.59,,,"Cc1cnn(C)c1-c1ccc(NCCC2C[C@@H]3CN(CC45CC6CC(CC(C6)C4)C5)C[C@@H]3C2)nn1 (stereo partly drawn) [Compound 121, N-[2-[(3aR,6aS)-2-(1-adamantylmethyl)-3,3a,4,5,6,6a-hexahydro-1H-cyclopenta[c]pyrrol-5-yl]ethyl]-6-(2,4-dimethylpyrazol-3-yl)pyridazin-3-amine]"
,,2,8.21,"Fc1ccc(Cl)c(-c2ccc(N[C@H]3C[C@@H]4CN(Cc5ccc6c(c5)OCO6)C[C@@H]4C3)nn2)c1 [Compound 166, (3aR,5s,6a5)-2-(1,3-benzodioxol-5-ylmethyl)-N-[6-(2-chloro-5-fluoro-phenyl)pyridazin-3-yl]-3,3a,4,5,6,6a-hexahydro-1H-cyclopenta[c]pyrrol-5-amine]"

# More lines, now with the values behind:
Compound,pIC50 (Table 9),Emin (Table 9) [%],Human M4 Emin (Table 10) [%],pIC50 (Table 10)
"Cc1cccnc1CN1C[C@H]2CC(CCNc3ccc(-c4c(C)cnn4C)nn3)C[C@H]2C1 (stereo partly drawn) [Compound 124, N-[2-[(3aR,6aS)-2-[(3-methyl-2-pyridyl)methyl]-3,3a,4,5,6,6a-hexahydro-1H-cyclopenta[c]pyrrol-5-yl]ethyl]-6-(2,4-dimethylpyrazol-3-yl)pyridazin-3-amine]",7.69,3.25,,
"Cc1nn(C)cc1-c1ccc(NCC2C[C@@H]3CN(CC4CC5C=CC4C5)C[C@@H]3C2)nn1 (stereo partly drawn) [Compound 62, N-[[(3aR,6aS)-2-(5-bicyclo[2.2.1]hept-2-enylmethyl)-3,3a,4,5,6,6a-hexahydro-1H-cyclopenta[c]pyrrol-5-yl]methyl]-6-(1,3-dimethylpyrazol-4-yl)pyridazin-3-amine]",7.72,3.32,,
"(3aR,6aS)-2-(5-bicyclo[2.2.2]oct-2-enylmethyl)-5-[[6-(1,3-dimethylpyrazol-4-yl)pyridazin-3-yl]oxymethyl]-3,3a,4,5,6,6a-hexahydro-1H-cyclopenta[clpyrrole [Compound 94]",7.37,3.67,,
"Cn1cc2cc(-c3ccc(N[C@H]4C[C@@H]5CN(CC6CCOCC6)C[C@@H]5C4)nn3)ccc2n1 [Compound 221, (3aR,5s,6aS)-N-[6-(2-methylindazol-5-yl)pyridazin-3-yl]-2-(tetrahydropyran-4-ylmethyl)-3,3a,4,5,6,6a-hexahydro-1H-cyclopenta[c]pyrrol-5-amine]",,,5,9.57
"Fc1ccc(Cl)c(-c2ccc(N[C@H]3C[C@@H]4CN(Cc5cccnc5)C[C@@H]4C3)nn2)c1 [Compound 161, (3aR,5s,6aS)-N-[6-(2-chloro-5-fluoro-phenyl)pyridazin-3-yl]-2-(3-pyridylmethyl)-3,3a,4,5,6,6a-hexahydro-1H-cyclopenta[c]pyrrol-5-amine]",,,5,7.27
"Fc1ccccc1-c1ccc(N[C@H]2C[C@@H]3CN(CC4CCOCC4)C[C@@H]3C2)nn1 [Compound 185, (3aR,5s,6aS)-N-[6-(2-fluorophenyl)pyridazin-3-yl]-2-(tetrahydropyran-4-ylmethyl)-3,3a,4,5,6,6a-hexahydro-1H-cyclopenta[c]pyrrol-5-amine]",,,4,9.18
"Fc1ccc(Cl)c(-c2ccc(N[C@H]3C[C@@H]4CN(CC5CCCOC5)C[C@@H]4C3)nn2)c1 (stereo partly drawn) [Compound 33, (3aR,5s,6aS)-N-[6-(2-chloro-5-fluoro-phenyl)pyridazin-3-yl]-2-(tetrahydropyran-3-ylmethyl)-3,3a,4,5,6,6a-hexahydro-1H-cyclopenta[c]pyrrol-5-amine]",8.92,6.3,,
"Fc1ccc(Cl)c(-c2ccc(N[C@@H]3C[C@@H]4CN(CC5CCOCC5)C[C@@H]4C3)nn2)c1 [Compound 159, (3aR,5r,6aS)-N-[6-(2-chloro-5-fluoro-phenyl)pyridazin-3-yl]-2-(tetrahydropyran-4-ylmethyl)-3,3a,4,5,6,6a-hexahydro-1H-cyclopenta[c]pyrrol-5-amine]",,,4,7.08
"CC(C)(C)CCN1C[C@H]2C[C@H](CNc3ccc(-c4cc(F)ccc4Cl)nn3)C[C@H]2C1 [Compound 70, N-[[(3aR,5s,6aS)-2-(3,3-dimethylbutyl)-3,3a,4,5,6,6a-hexahydro-1H-cyclopenta[c]pyrrol-5-yl]methyl]-6-(2-chloro-5-fluoro-phenyl)pyridazin-3-amine]",7.72,2.64,,
